Data on three compounds can be found in patent US9181243B2, “Solvate form M of trametinib dimethyl sulfoxide and methods of making and using thereof” (HANGZHOU PUSHAI PHARMACEUTICAL TECHNOLOGY CO., LTD., priority 2014, dated 2015).

Like-named read-outs stand apart in the source and are kept apart here.

The conditions of data set [1]: volume distribution.
Procedure: Typical particle size distribution (PSD) is measured using a laser diffraction particle size analyzer, namely Microtrac FLEX 53500. The most common approach for defining the distribution is to report the D10, D50, and D90 values based on a volume distribution. The D50, the median, has been defined above as the diameter where half of the population lies below this value. Similarly, 90 percent of the distribution lies below the D90, and 10 percent of the population lies below the D10.
Data set [2] is described as follows: Isothermal sorption (hygroscopicity). Particulars: between 20-80% RH (relative humidity).
Procedure: Isothermal sorption was performed by TA Instruments Q5000 TGA. The control software is Thermal Advantage and the analysis software is Universal Analysis. Usually 1 to 10 mg of the specimen was placed in the platinum pan. The weight changes of the sample from 20% to 80% to 20% relative humidity were recorded by the TA software and the isothermal sorption plot was obtained by the analysis software.
Data set [3] in a line: Storage stability of crystalline form followed by XRPD. Particulars: 44% RH, room temperature, 9 months.
Data set [4] concerns advanced melanoma with BRAF V600E/K mutations. Particulars: versus traditional chemotherapy drugs; cited from earlier work.

Consider `CC(=O)Nc1cccc(-n2c(=O)n(C3CC3)c(=O)c3c(Nc4ccc(I)cc4F)n(C)c(=O)c(C)c32)c1` [Form M], for which, in data set [1] (listed as Example 8), the D10 is 18 μm, the D50 was found to be 40 μm and the D90 worked out at 85 μm. In data set [1] (listed as Example 9), this compound returned a D10 of 9 μm, a D50 of 24 μm and a D90 of 72 μm. In data set [2], the “weight change in isothermal sorption” value is on record as “about 1.07%”. Further, the “crystalline form change on storage (XRPD pattern)” value (from here on “crystalline form change on storage”) in data set [3] is “no signs of form change”.

As to `CC(=O)Nc1cccc(-n2c(=O)n(C3CC3)c(=O)c3c(Nc4ccc(I)cc4F)n(C)c(=O)c(C)c32)c1` [trametinib, N-{3-[3-cyclopropyl-5-(2-fluoro-4-iodo-phenylamino)-3,4,6,7-tetrahydro-6,8-dimethyl-2,4,7-trioxo-pyrido[4,3-d]pyrimidin-1(2H)-yl]phenyl}acetamide], in data set [4], the therapeutic effect entry is on record as “significantly better than traditional chemotherapy drugs”.

For the compound `CC(=O)Nc1cccc(-n2c(=O)n(C3CC3)c(=O)c3c(Nc4ccc(I)cc4F)n(C)c(=O)c(C)c32)c1.C[S+](C)[O-]` [Reference Example 1, Trametinib dimethyl sulfoxide solvate, reference compound], in data set [1], the D10 turned out to be 3 μm, the D50 is given as 8 μm and the D90 was 36 μm. Besides, the “crystalline form change on storage” value in data set [3] (listed as trametinib dimethyl sulfoxide solvate obtained by the conventional methods) is on record as “its patterns changed”. Moreover, the “crystalline form change on storage” value in data set [3] (listed as trametinib dimethyl sulfoxide solvates obtained by conventional methods) is recorded as “changed its XRD pattern”.
